{"source": "ChEMBL document CHEMBL4303773", "about": "(Nature, 2020)", "key": {"[1]": {"tested_on": "SARS-CoV-2", "assay": "IC90 for antiviral activity against SARS-CoV-2 in the Vero E6 cell line by measuring infectious viral titer of supernatent from compound-treated Vero E6 cells by Median Tissue Culture Infectious Dose (TCID)50 by the method of Reed and Muench", "assay_type": "functional, Chlorocebus sabaeus", "conditions": "Severe acute respiratory syndrome coronavirus 2, Vero C1008"}, "[2]": {"target": "T1, Muscarinic acetylcholine receptor M5 (Homo sapiens, UniProt P08912)", "T1 sequence (P08912 whole entry)": "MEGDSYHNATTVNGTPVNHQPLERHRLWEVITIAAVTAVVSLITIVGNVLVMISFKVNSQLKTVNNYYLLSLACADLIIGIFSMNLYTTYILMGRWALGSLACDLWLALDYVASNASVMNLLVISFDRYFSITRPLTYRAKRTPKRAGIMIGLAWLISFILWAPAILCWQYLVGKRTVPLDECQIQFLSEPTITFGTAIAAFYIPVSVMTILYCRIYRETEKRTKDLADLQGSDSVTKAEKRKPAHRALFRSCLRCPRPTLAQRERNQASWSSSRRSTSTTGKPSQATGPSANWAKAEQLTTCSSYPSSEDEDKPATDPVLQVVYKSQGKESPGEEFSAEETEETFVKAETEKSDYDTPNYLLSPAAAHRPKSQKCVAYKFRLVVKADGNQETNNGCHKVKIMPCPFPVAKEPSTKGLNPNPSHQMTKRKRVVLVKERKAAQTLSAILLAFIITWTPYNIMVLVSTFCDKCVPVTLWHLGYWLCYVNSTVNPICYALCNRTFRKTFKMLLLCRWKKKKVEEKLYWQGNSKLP", "assay": "Activity of compound against Muscarinic acetylcholine receptor M5 (CHRM5) by displacement of 3H-QNB"}, "[3]": {"target": "T2, Muscarinic acetylcholine receptor M4 (Homo sapiens, UniProt P08173)", "T2 sequence (P08173 whole entry)": "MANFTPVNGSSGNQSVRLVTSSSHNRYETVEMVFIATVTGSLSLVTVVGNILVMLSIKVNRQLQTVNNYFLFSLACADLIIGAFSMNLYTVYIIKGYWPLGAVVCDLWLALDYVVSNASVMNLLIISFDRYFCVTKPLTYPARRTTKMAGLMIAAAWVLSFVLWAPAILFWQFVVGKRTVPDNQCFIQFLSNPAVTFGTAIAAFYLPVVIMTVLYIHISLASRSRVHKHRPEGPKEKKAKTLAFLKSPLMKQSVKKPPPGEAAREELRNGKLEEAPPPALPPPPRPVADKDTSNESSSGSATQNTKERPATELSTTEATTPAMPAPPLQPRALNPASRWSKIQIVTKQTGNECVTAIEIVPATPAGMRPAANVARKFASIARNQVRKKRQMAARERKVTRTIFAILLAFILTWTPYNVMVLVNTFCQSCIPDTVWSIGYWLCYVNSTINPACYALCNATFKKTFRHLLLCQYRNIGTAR", "assay": "Activity of compound against Muscarinic acetylcholine receptor M4 (CHRM4) by displacement of 3H-QNB"}, "[4]": {"target": "Sigma non-opioid intracellular receptor 1 (Homo sapiens, UniProt Q99720)", "sequence (Q99720 whole entry)": "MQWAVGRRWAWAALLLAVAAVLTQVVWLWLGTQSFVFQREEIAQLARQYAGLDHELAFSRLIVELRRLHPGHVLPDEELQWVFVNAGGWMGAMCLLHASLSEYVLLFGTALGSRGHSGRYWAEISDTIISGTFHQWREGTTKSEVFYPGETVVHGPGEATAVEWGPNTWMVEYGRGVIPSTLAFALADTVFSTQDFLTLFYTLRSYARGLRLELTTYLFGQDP", "description": "Displacement of [3H]-pentazocin from the Sigma1 receptor"}, "[5]": {"target": "Sigma intracellular receptor 2 (Homo sapiens, UniProt Q5BJF2)", "sequence (Q5BJF2 whole entry)": "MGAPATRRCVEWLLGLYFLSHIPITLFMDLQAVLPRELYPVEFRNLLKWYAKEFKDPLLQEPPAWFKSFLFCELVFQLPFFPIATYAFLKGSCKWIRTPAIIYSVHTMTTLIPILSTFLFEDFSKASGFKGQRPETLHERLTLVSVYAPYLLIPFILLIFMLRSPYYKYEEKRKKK", "assay": "Displacement of [3H]-DTG from the Sigma2 receptor"}, "[6]": {"tested_on": "SARS-CoV-2", "conditions": "Chlorocebus sabaeus; Vero C1008"}, "[7]": {"target": "T3, Alpha-2A adrenergic receptor (Homo sapiens, UniProt P08913)", "T3 sequence (P08913 whole entry)": "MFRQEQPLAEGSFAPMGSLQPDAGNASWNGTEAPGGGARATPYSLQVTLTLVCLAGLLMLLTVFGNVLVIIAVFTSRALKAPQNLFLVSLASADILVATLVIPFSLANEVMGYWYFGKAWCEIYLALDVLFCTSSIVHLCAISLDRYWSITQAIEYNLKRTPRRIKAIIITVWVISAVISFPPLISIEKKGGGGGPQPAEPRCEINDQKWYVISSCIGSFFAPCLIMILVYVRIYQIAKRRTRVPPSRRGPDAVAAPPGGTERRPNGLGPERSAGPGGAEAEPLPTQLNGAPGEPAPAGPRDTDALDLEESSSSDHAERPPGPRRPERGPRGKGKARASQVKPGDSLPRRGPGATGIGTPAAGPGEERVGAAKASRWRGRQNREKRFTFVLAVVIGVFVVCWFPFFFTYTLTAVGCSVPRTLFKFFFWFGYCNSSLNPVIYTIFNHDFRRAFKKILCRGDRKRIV", "assay": "Activity of compound against Alpha-2A (ADRA2A) adrenergic receptor by displacement of [3H]-rauwolscine"}, "[8]": {"target": "Voltage-gated inwardly rectifying potassium channel KCNH2 (Homo sapiens, UniProt Q12809)", "sequence (Q12809 whole entry)": "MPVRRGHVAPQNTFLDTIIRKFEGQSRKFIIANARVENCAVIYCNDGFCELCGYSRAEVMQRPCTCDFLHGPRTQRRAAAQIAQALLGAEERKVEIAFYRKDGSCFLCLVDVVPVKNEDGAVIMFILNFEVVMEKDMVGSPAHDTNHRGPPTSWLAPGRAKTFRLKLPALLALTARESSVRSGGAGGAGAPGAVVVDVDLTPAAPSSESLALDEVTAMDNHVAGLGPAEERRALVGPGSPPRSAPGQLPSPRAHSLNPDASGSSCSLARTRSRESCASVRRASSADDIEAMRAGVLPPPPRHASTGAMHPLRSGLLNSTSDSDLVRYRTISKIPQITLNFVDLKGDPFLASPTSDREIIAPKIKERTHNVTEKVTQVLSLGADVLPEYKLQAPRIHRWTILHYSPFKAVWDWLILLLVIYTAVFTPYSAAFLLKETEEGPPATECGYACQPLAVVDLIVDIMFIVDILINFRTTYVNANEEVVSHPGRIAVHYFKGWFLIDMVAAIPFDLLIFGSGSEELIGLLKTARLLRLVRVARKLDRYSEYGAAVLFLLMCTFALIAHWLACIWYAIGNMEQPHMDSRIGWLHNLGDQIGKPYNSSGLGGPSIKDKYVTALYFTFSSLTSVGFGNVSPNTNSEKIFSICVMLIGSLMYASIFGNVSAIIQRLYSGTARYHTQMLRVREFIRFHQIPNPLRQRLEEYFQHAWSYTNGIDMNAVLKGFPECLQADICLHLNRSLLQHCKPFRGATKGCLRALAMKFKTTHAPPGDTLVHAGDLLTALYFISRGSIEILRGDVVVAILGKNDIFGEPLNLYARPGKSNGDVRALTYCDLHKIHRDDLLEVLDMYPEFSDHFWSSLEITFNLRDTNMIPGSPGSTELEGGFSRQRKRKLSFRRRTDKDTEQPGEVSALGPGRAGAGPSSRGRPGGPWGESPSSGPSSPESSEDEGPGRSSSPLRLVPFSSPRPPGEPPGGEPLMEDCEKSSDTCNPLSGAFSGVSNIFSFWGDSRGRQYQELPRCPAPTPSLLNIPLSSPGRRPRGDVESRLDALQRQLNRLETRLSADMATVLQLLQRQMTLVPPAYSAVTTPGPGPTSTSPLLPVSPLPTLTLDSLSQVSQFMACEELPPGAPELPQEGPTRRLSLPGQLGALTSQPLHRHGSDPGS", "description": "hERG binding assays: Displacement of [3H]-Dofetilide (5 nM final) from hERG membranes obtained from HEK293 cells"}, "[9]": {"tested_on": "Vero C1008", "assay": "AUC (cytotoxicity %) of compound against Vero E6 cells by MTT assay.", "assay_type": "toxicity, cell-based", "conditions": "chlorocebus sabaeus"}, "[10]": {"target": "T4, Muscarinic acetylcholine receptor M2 (Homo sapiens, UniProt P08172)", "T4 sequence (P08172 whole entry)": "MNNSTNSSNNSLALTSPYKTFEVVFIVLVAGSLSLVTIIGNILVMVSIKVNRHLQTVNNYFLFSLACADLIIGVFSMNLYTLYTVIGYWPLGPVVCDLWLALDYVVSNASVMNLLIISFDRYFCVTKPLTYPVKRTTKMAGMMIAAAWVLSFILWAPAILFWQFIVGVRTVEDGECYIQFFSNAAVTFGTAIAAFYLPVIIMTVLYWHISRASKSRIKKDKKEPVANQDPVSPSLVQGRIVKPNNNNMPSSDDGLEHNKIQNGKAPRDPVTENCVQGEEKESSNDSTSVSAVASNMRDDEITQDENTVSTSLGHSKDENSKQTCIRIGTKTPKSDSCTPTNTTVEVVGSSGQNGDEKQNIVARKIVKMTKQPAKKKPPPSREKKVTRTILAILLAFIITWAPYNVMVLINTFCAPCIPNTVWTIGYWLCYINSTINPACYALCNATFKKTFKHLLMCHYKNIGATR", "assay": "Activity of compound against Muscarinic acetylcholine receptor M2 (CHRM2) by displacement of 3H-QNB"}, "[11]": {"tested_on": "Vero C1008", "assay": "(§1) Cytotoxicity of compound against Vero E6 cells by MTT assay.", "conditions": "chlorocebus sabaeus, vero c1008"}, "[12]": {"tested_on": "SARS-CoV-2", "conditions": "Chlorocebus sabaeus; Vero C1008", "remark": "listed apart in the source"}, "[13]": {"assay": "in vitro", "conditions": "monkey, Vero E6 cells"}, "[14]": {"assay": "as §1", "conditions": "chlorocebus sabaeus, Vero E6 cells"}}, "note": "Calls of active or inactive are those of the source. No cut-off for these calls is given here."}
{"compound": "COc1cccc2c1CCCC2CCCN1CCN(C2CCCCC2)CC1", "note": "(stereo not given)", "values": [{"measurement": "IC90", "setting": "[1]", "value": 0.278, "unit": "µM"}]}
{"compound": "CCN(CC)CCCC(C)Nc1ccnc2cc(Cl)ccc12", "note": "(stereo not given) [CHLOROQUINE]", "values": [{"measurement": "Ki", "setting": "[2]", "value": 21.9, "unit": "µM"}, {"measurement": "Ki", "setting": "[3]", "value": 5.75, "unit": "µM"}, {"measurement": "Ki", "setting": "[4]", "value": 0.0794, "unit": "µM"}, {"measurement": "Ki", "setting": "[5]", "value": 0.501, "unit": "µM"}]}
{"compound": "CCN(CCO)CCCC(C)Nc1ccnc2cc(Cl)ccc12", "note": "(stereo not given) [HYDROXYCHLOROQUINE]", "values": [{"measurement": "Ki", "setting": "[2]", "value": 20, "unit": "µM"}, {"measurement": "AUC", "setting": "[6]", "value": 140}, {"measurement": "Ki", "setting": "[7]", "value": 6.46, "unit": "µM"}, {"measurement": "Ki", "setting": "[3]", "value": 5.5, "unit": "µM"}, {"measurement": "Ki", "setting": "[8]", "value": 2.51, "unit": "µM"}, {"measurement": "IC90", "setting": "[1]", "value": 5.78, "unit": "µM"}, {"measurement": "Ki", "setting": "[4]", "value": 0.126, "unit": "µM"}, {"measurement": "AUC cytotoxicity", "setting": "[9]", "value": 234.6}, {"measurement": "Ki", "setting": "[10]", "value": 5.13, "unit": "µM"}, {"measurement": "Ki", "setting": "[5]", "value": 1, "unit": "µM"}]}
{"compound": "CCOC(=O)N1CCC(=C2c3ccc(Cl)cc3CCc3cccnc32)CC1", "note": "[LORATADINE]", "values": [{"measurement": "pCC50", "setting": "[11]", "value": "Linear Fit"}, {"measurement": "pIC50", "setting": "[12]", "value": "Linear Fit; INACTIVE"}]}
{"compound": "CN(C)C(=N)N=C(N)N", "note": "[METFORMIN]", "values": [{"measurement": "AUC cytotoxicity", "setting": "[9]", "value": 305.4}, {"measurement": "selectivity ratio", "setting": "[13]", "value": 1.04}, {"measurement": "CC50", "setting": "[14]", "value": "~33.6", "unit": "µM"}]}
{"compound": "N=C(N)c1ccc2cc(OC(=O)c3ccc(N=C(N)N)cc3)ccc2c1", "note": "[NAFAMOSTAT]", "values": [{"measurement": "AUC cytotoxicity", "setting": "[9]", "value": 279.9}, {"measurement": "selectivity ratio", "setting": "[13]", "value": "0.926 (inactive)"}, {"measurement": "pCC50", "setting": "[11]", "value": "~ 2.44"}]}
{"compound": "COc1cc2c(c(OC)n1)[C@]1(O)[C@H](O)[C@H](CN(C)C)[C@@H](c3ccccc3)[C@]1(c1ccc(C#N)cc1)O2", "note": "[ZOTATIFIN]", "values": [{"measurement": "IC90", "setting": "[1]", "value": 0.037, "unit": "µM"}, {"measurement": "CC50", "setting": "[14]", "value": "0.00512 µM (active)"}]}
